From BigSolDB 2.1

Nc1cccc(C(=O)O)c1O
solubility (mole fraction)
Conditions | 293.2 K | 298.2 K | 303.2 K | 308.2 K | 313.2 K
in ethanol | 0.000186 | 0.000238 | 0.000285 | 0.000332 | 0.000386
in water | 0.000113 | 0.000126 | 0.000141 | 0.00016 | 0.000178
